Residues, ends and D or L forms follow the SMILES beside them.
Key:
[1] = tested on: NF-κB activation in HEK Blue IL-33/IL-1β sensor cells; assay: HEK Blue SEAP reporter gene assay of NF-κB activation; type: cell-based; conditions: peptide 1 μM; human IL-1β 2.5 ng/mL; 24 h
Experimental: Activation of the NF-κB pathway upon interaction with IL-1β (or IL-33) receptor complex at the membrane was assessed via HEK-Blue SEAP reporter gene assay (InvivoGen®, California, USA). Basically, HEK Blue IL-33/IL-1β sensor cells were cultured in growth medium made of complete Dulbecco's modified Eagle medium (DMEM; 4.5 g/L glucose, 2 mM L-glutamine, […], 10% fetal bovine serum, 50 U/mL penicillin, 50 μg/mL streptomycin; Gibco Invitrogen®, Ontario, Canada) supplemented with selection antibiotics (30 μg/mL Blasticidin®, 200 μg/mL HygroGold® and 100 μg/mL Zeocin®; InvivoGen, California, USA). Upon reaching almost 70% confluency, HEK Blue cells were reincorporated into complete DMEM medium and split (2.5×10^4 cells in 180 μL/well) into 96-well membrane-treated flat bottom culture plates (Plate #3595, Corning Life Sciences, Massachusetts, USA). Cells were pretreated with 10 μL of peptide or peptidomimetic (1 μM) for 15 min., after which 10 μL of human IL-1β (2.5 ng/mL, PeproTech®, Rocky Hill, N.J., USA) was added. Following 24 h of incubation, 40 μL of the cells supernatant was added to a UV-transparent 96-well plate (Plate #3635, Corning Life Sciences®, Massachusetts, USA) already filled with 160 μL of resuspended Quanti-Blue® dye (1×, InvivoGen, California, USA). The plate was covered and incubated for 20 min. The level of SEAP was measured by reading absorbance (or optical density, OD) at 620 nm using a multiplate reader equipped with a monochromator (Perkin Elmer Wallac Envision® 2104; Perkin Elmer®, California, USA). Hexaplicate results were normalized over complete DMEM background signal and analyzed by one-way analysis of variance (ANOVA) factoring for treatments, and data are presented as mean±standard error of the mean (SEM).

human TF-1 cells = assay: IL-1β-induced thymocyte (TF-1) proliferation, CyQUANT NF dye; type: cell-based; conditions: peptide 1 μM; human IL-1β 25 ng/mL; 48 h
Experimental: Immune cell proliferation was assessed by DNA intercalation of CyQUANT NF® fluorescent dye (Invitrogen, Carlsbad, Calif., USA). Essentially, human TF-1 cells (CRL-2003, American Type Culture Collection) were cultured in complete RPMI 1640 (WISENT Inc., Montréal, Quebec, Canada) supplemented with human GM-CSF (2 ng/ml, PeptroTech, Rocky Hill, N.J., USA). Cells (passage 5 and at least 85% viable, as verified by trypan blue dying) were reincorporated into RPMI 1640 medium deprived of phenol red (Gibco Invitrogen®, Carlsbad, Calif., USA) and of growth factors [i.e. fetal bovine serum (FBS) and GM-CSF] for 18 h and split (5×10^3 cells in 200 μL/well) into 96-well non-adherent flat bottom culture plates (Sarstedt®, Nümbrecht, Germany). Following 15 min pre-incubation with peptide or peptidomimetic (1 μM), the cells were treated with human IL-1β (25 ng/mL, PeproTech®, Rocky Hill, N.J., USA) and re-incubated. After 48 h, the cells were centrifuged for 7 min at 300 g, reincorporated into Hank's Buffered Salt Solution (1×HBSS, 50 μL/well, Gibco Invitrogen®, Carlsbad, Calif., USA) and transferred into a 96-well polystyrene black plate (Corning Incorporated, Corning, N.Y., USA). An additional 50 μL solution made of CyQUANT NF® dye (component A, 1×) and CyQUANT NF™ delivery agent (component B, 1×) in 1×HBSS was added to the cells in each well, which were covered with aluminum foil and incubated for 45 min. Fluorescence intensity was measured using a microplate reader (Perkin Elmer Wallac Envision® 2104; Perkin Elmer®, California, USA) with excitation at 485 nm and emission detection at 530 nm (FITC 485 and FITC 531 filters, respectively). Hexaplicate experiments were repeated three times and results were analyzed by one-way analysis of variance (ANOVA) factoring for treatments, and data are presented as mean±standard error of the mean (SEM).

Molecule | inhibition of NF-κB activation (OD620) [1] [%] | diminished IL-1β-induced proliferation (human TF-1 cells) [%]
Kineret: a competitive IL-1R antagonist | 100 | 
CC(C)C[C@@H](NC(=O)[C@@H](CCC(=O)O)NC(=O)[C@@H](C(C)C)N1CCN(NC(=O)[C@@H](Cc2ccc(O)cc2)NC(=O)[C@H](N)CCCNC(=N)N)C1=O)C(=O)N[C@H](C)C(N)=O [[Nai^3]-101.10, D-Arg-D-Tyr-Nai-D-Val-D-Glu-D-Leu-D-Ala-NH2] (HELM PEPTIDE1{[dR].[dY].[CC(C)[C@H](C(=O)[*:2])N1CCN(N[*:1])C1=O].[dE].[dL].[dA].[am]}$$$$V2.0) | 65 | 77
D-Arg-D-Tyr-D-Thr-D-Val-DGlu-D-Leu-D-Ala-NH2 [101.10, reference compound] | 77 | 15

From patent publication US8993515B2, “Peptidomimetics comprising N-amino cyclic urea residues and uses thereof” (Valorisation-Recherche, Limited Partnership, priority 2012, dated 2015)
